Reference: patent US8969570B2, “Beta-lactamase inhibitors” (priority 2012, dated 2015)
Where a name gives a salt, the structure may show the parent alone.

Columns and labels:
Format in all cases: cell-based
Settings in all cases: β-lactam (CXA-101/Ceftolozane or ceftazidime) fixed at 4 μg/mL; compared with Avibactam (comparator compound CCC)
[1] = test system: bacterial strains that express CTX-M-15 β-lactamase (isogenic E. coli strain); assay: Synergy MIC (sMIC) assay, CTX-M-15 strain
From the text: A set of β-lactamase expressing isogenic E. coli strains was constructed by cloning a β-lactamase gene into a customized derivative of pBR322 (GenBank Accession Number J01749) and transforming the engineered plasmids into E. coli. The NdeI restriction site within the plasmid backbone of pBR322 was removed to generate pBR322 ΔNdeI. The pBR322 ΔNdeI vector itself, minus the blaTEM-1 gene, was amplified using two primers: (1) pBR-Pbla 5′-[…]-3, SEQ ID 1, a primer with an engineered NdeI restriction site at the 3′ end of the blaTEM-1 promoter and (2) pBR-vec-1 5′-[…]-3′, SEQ ID 2, a primer with an engineered BamHI restriction site at the 3′ end of the blaTEM-1 open reading frame. The chloramphenicol resistance gene, cat, was generated by PCR amplification from pKD3 (GenBank Accession Number AY048742) using primers with an engineered NdeI restriction site at the 5′ end (Pbla-cat 5′-[…]-3′, SEQ ID 3) and an engineered BamHI restriction site at the 3′ end (Vec-1-cat 5′-[…]-3′, SEQ ID 4) of the resistance gene. The two PCR products, pBR322 ΔNdeI and cat were ligated together generating pBR-CBST (pBR322 ΔNdeI ΔTEM-1::cat Seq. ID 5) which retains both the pBR322 tetracycline resistance cassette, tetA, and the plasmid origin of replication but the blaTEM-1 gene was replaced by the cat gene. […]

[2] = test system: bacterial strains that express KPC β-lactamase (isogenic E. coli strain KPC-2); assay: Synergy MIC (sMIC) assay, KPC strain
From the text: (§1) A set of β-lactamase expressing isogenic E. coli strains was constructed by cloning a β-lactamase gene into a customized derivative of pBR322 (GenBank Accession Number J01749) and transforming the engineered plasmids into E. coli. The NdeI restriction site within the plasmid backbone of pBR322 was removed to generate pBR322 ΔNdeI. The pBR322 ΔNdeI vector itself, minus the blaTEM-1 gene, was amplified using two primers: (1) pBR-Pbla 5′-[…]-3, SEQ ID 1, a primer with an engineered NdeI restriction site at the 3′ end of the blaTEM-1 promoter and (2) pBR-vec-1 5′-[…]-3′, SEQ ID 2, a primer with an engineered BamHI restriction site at the 3′ end of the blaTEM-1 open reading frame. The chloramphenicol resistance gene, cat, was generated by PCR amplification from pKD3 (GenBank Accession Number AY048742) using primers with an engineered NdeI restriction site at the 5′ end (Pbla-cat 5′-[…]-3′, SEQ ID 3) and an engineered BamHI restriction site at the 3′ end (Vec-1-cat 5′-[…]-3′, SEQ ID 4) of the resistance gene. The two PCR products, pBR322 ΔNdeI and cat were ligated together generating pBR-CBST (pBR322 ΔNdeI ΔTEM-1::cat Seq. ID 5) which retains both the pBR322 tetracycline resistance cassette, tetA, and the plasmid origin of replication but the blaTEM-1 gene was replaced by the cat gene.
(§2) Using this engineering strategy a number of plasmids producing β-lactamase genes from different classes (see below) were generated using synthetic genes with an engineered NdeI restriction site at the 5′ end and BamHI restriction site at the 3′ end of each gene (GenScript). Both the synthetic β-lactamase genes and cat gene were ligated into the NdeI/BamHI sites of the pBR322 ΔNdeI PCR product and transformed into electrocompetent E. coli ElectroMax DH10B (Invitrogen/Life Technologies). E. coli DH10B harboring the recombinant plasmids were selected on LB agar (supplemented with 25 μg/mL tetracycline) and single isolated colonies were then inoculated into 5 mL LB media (supplemented with 25 μg/mL tetracycline), and incubated at 37° C. with aeration (250 rpm) for 18 hrs. The cultures were frozen back at −80° C. in 20% glycerol. The DNA sequence of the cloned β-lactamase genes was confirmed. The β-lactamase gene expression in the recombinant E. coli strains was driven by the blaTEM-1 promoter in the pBR-CBST plasmid and was characterized by MIC profiling of the E. coli recombinant strains against comparator β-lactam/BLI combinations in broth microdilution assay.
(§3) The synergy MIC (sMIC) assay determines the concentration of the BLI required to potentiate the activity of a fixed concentration of a β-lactam antibiotic against β-lactamase producing bacterial strains. The experimental protocol was performed according to Clinical and Laboratory Standards Institute (CLSI) guidelines with modifications as described below (CLSI guidelines can be derived from the CLSI document M07-A9 published in January 2012: “Methods for Dilution Antimicrobial Susceptibility Tests for Bacteria That Grow Aerobically; Approved Standard-Ninth Edition”). The assay is set-up by serially diluting the BLI across 11 of the 12 wells in each row of a 96-well broth microdilution assay plate, adding the β-lactam at a fixed concentration to all wells in the assay plate, inoculating the assay plate with bacterial strains, and determining the lowest concentration of BLI required to inhibit overnight bacterial growth.
(§4) To prepare for MIC testing, frozen glycerol stocks of laboratory engineered, isogenic E. coli strains, which contain cloned β-lactamase expressing plasmids were used to streak for isolated colonies on rich, selective LB agar supplemented with 25 μg/mL tetracycline to maintain the plasmid. All strains were incubated at 37° C. for 18-24 hrs.
(§5) On the day of testing, primary cultures were started by scraping off 5-10 colonies from the tetracycline supplemented LB plates containing engineered strains. […]

[3] = test system: bacterial strains that express P99 β-lactamase (isogenic E. coli strain P99 AmpC); assay: Synergy MIC (sMIC) assay, P99 AmpC strain
From the text: as §1, §2, §3, §4, §5

[4] = test system: bacterial strains that express SHV-12 β-lactamase (isogenic E. coli strain); assay: Synergy MIC (sMIC) assay, SHV-12 strain
From the text: as §1, §2, §3, §4, §5

[5] = test system: bacterial strains that express OXA-15 β-lactamase (isogenic E. coli strain); assay: Synergy MIC (sMIC) assay, OXA-15 strain
From the text: as §1, §2, §3, §4, §5

Compound	activity against bacterial strains that express CTX-M-15 β-lactamase relative to Avibactam (sMIC) [1]	activity against bacterial strains that express KPC β-lactamase relative to Avibactam (sMIC) [2]	activity against bacterial strains that express P99 β-lactamase relative to Avibactam (sMIC) [3]	activity against bacterial strains that express SHV-12 β-lactamase relative to Avibactam (sMIC) [4]	activity against bacterial strains that express OXA-15 β-lactamase relative to Avibactam (sMIC) [5]
O=C1N2C[C@@H](CC[C@H]2c2ccon2)N1OS(=O)(=O)O [Compound 101, (2S,5R)-2-(isoxazol-3-yl)-7-oxo-1,6-diazabicyclo[3.2.1]octan-6-yl hydrogen sulfate]	as active as Avibactam	as active or more active than Avibactam	as active as Avibactam	–	–
N#Cc1cc([C@@H]2CC[C@@H]3CN2C(=O)N3OS(=O)(=O)O)no1 [Compound 102, (2S,5R)-2-(5-cyanoisoxazol-3-yl)-7-oxo-1,6-diazabicyclo[3.2.1]octan-6-yl hydrogen sulfate]	–	as active or more active than Avibactam	–	–	–
NC(=O)c1cc([C@@H]2CC[C@@H]3CN2C(=O)N3OS(=O)(=O)O)no1 [Compound 103, (2S,5R)-2-(5-carbamoylisoxazol-3-yl)-7-oxo-1,6-diazabicyclo[3.2.1]octan-6-yl hydrogen sulfate]	–	as active or more active than Avibactam	–	as active as Avibactam	–
Cc1nnc([C@@H]2CC[C@@H]3CN2C(=O)N3OS(=O)(=O)O)o1 [Compound 200, (2S,5R)-2-(5-methyl-1,3,4-oxadiazol-2-yl)-7-oxo-1,6-diazabicyclo[3.2.1]octan-6-yl hydrogen sulfate]	–	as active or more active than Avibactam	–	as active as Avibactam	more active than Avibactam
CCc1nnc([C@@H]2CC[C@@H]3CN2C(=O)N3OS(=O)(=O)O)o1 [Compound 201, (2S,5R)-2-(5-ethyl-1,3,4-oxadiazol-2-yl)-7-oxo-1,6-diazabicyclo[3.2.1]octan-6-yl hydrogen sulfate]	–	as active or more active than Avibactam	–	–	more active than Avibactam
CNc1nnc([C@@H]2CC[C@@H]3CN2C(=O)N3OS(=O)(=O)O)o1 [Compound 203, (2S,5R)-2-(5-(methylamino)-1,3,4-oxadiazol-2-yl)-7-oxo-1,6-diazabicyclo[3.2.1]octan-6-yl hydrogen sulfate]	–	as active or more active than Avibactam	–	–	–
CN1CCC(c2nnc([C@@H]3CC[C@@H]4CN3C(=O)N4OS(=O)(=O)O)o2)CC1 [Compound 204, (2S,5R)-2-(5-(1-methylpiperidin-4-yl)-1,3,4-oxadiazol-2-yl)-7-oxo-1,6-diazabicyclo[3.2.1]octan-6-yl hydrogen sulfate]	–	as active or more active than Avibactam	as active as Avibactam	–	more active than Avibactam
CN1CCN(c2nnc([C@@H]3CC[C@@H]4CN3C(=O)N4OS(=O)(=O)O)o2)CC1 [Compound 205, (2S,5R)-2-(5-(4-methylpiperazin-1-yl)-1,3,4-oxadiazol-2-yl)-7-oxo-1,6-diazabicyclo[3.2.1]octan-6-yl hydrogen sulfate]	–	as active or more active than Avibactam	–	–	more active than Avibactam
O=C1N2C[C@@H](CC[C@H]2c2nnc(C3CNCCO3)o2)N1OS(=O)(=O)O (stereo partly drawn) [Compound 206, (2S,5R)-2-(5-(morpholin-2-yl)-1,3,4-oxadiazol-2-yl)-7-oxo-1,6-diazabicyclo[3.2.1]octan-6-yl hydrogen sulfate]	–	as active or more active than Avibactam	as active as Avibactam	–	more active than Avibactam
O=C1N2C[C@@H](CC[C@H]2c2nncs2)N1OS(=O)(=O)O [Compound 300, (2S,5R)-7-oxo-2-(1,3,4-thiadiazol-2-yl)-1,6-diazabicyclo[3.2.1]octan-6-yl hydrogen sulfate]	as active as Avibactam	as active or more active than Avibactam	as active as Avibactam	as active as Avibactam	more active than Avibactam
NCc1nnc([C@@H]2CC[C@@H]3CN2C(=O)N3OS(=O)(=O)O)s1 [Compound 301, (2S,5R)-2-(5-(aminomethyl)-1,3,4-thiadiazol-2-yl)-7-oxo-1,6-diazabicyclo[3.2.1]octan-6-yl hydrogen sulfate]	–	as active or more active than Avibactam	as active as Avibactam	as active as Avibactam	more active than Avibactam
O=C1N2C[C@@H](CC[C@H]2c2nnc(N3CCNCC3)s2)N1OS(=O)(=O)O [Compound 302, (2S,5R)-7-oxo-2-(5-(piperazin-1-yl)-1,3,4-thiadiazol-2-yl)-1,6-diazabicyclo[3.2.1]octan-6-yl hydrogen sulfate]	–	as active or more active than Avibactam	–	as active as Avibactam	more active than Avibactam
NC(=O)c1noc([C@@H]2CC[C@@H]3CN2C(=O)N3OS(=O)(=O)O)n1 [Compound 401, (2S,5R)-2-(3-carbamoyl-1,2,4-oxadiazol-5-yl)-7-oxo-1,6-diazabicyclo[3.2.1]octan-6-yl hydrogen sulfate]	–	as active or more active than Avibactam	–	as active as Avibactam	–
CCOC(=O)c1noc([C@@H]2CC[C@@H]3CN2C(=O)N3OS(=O)(=O)O)n1 [Compound 402, ethyl 5-((2S,5R)-7-oxo-6-(sulfooxy)-1,6-diazabicyclo[3.2.1]octan-2-yl)-1,2,4-oxadiazole-3-carboxylate]	–	–	–	as active as Avibactam	–
O=C1N2C[C@@H](CC[C@H]2c2ncns2)N1OS(=O)(=O)O [Compound 500, (2S,5R)-7-oxo-2-(1,2,4-thiadiazol-5-yl)-1,6-diazabicyclo[3.2.1]octan-6-yl hydrogen sulfate]	–	–	as active as Avibactam	–	–
